System: Solenopsis invicta workers
Assay: Injection bioassay of peptides in fire ant workers, adult mortality
Type: in vivo
Details: peptide with Cys-Cys S-S bond in insect saline, injected into fire ant workers
Protocol: Peptides identified herein are injected into the hemocoel of Solenopsis invicta workers using a Nanoliter 2000™ System (World Precision Instruments) with pulled borosilicate needles.
(§1) To determine the negative impact these peptides may have against fire ants, synthesis of potential candidates of small peptides with Cysteine-Cysteine S—S bond at the N- and C-terminal ends of SEQ ID NO: 2 and SEQ ID NO: 14. Synthesis of the peptides is described above. These peptides were dissolved in an insect saline (composition in mM: NaCl 126, KCl 5.4, NaH2PO4 0.17 and KH2PO4 0.22, pH 7.4) or the saline only control were injected into fire ant workers and phenotypic effects monitored.
as §1, with “NO:2-SEQ” for “NO: 2 and SEQ”, “NO:14.” for “NO: 14.”

Substance	adult mortality compared to the saline control
CGSHFC (Synthetically generated peptide) [SEQ ID NO: 14, short synthetically generated peptide]	did not affect adult mortality
CIQQGSHFC (Synthetically generated peptide) [SEQ ID NO: 4, synthetically generated peptide, loop-constrained by flanking cysteines]	significant increase in adult mortality
CLKIGSHFC (Synthetically generated peptide) [SEQ ID NO: 3, synthetically generated peptide, loop-constrained by flanking cysteines]	significant increase in adult mortality
CMARYMSAC (Synthetically generated peptide) [SEQ ID NO: 11, synthetically generated peptide, loop-constrained by flanking cysteines]	significant increase in adult mortality
CQKIGSHFC (Synthetically generated peptide) [SEQ ID NO: 2, synthetically generated peptide, loop-constrained by flanking cysteines]	increase in adult mortality
CRGATPMSC (Synthetically generated peptide) [SEQ ID NO: 12, synthetically generated peptide, loop-constrained by flanking cysteines]	significant increase in adult mortality

Reference: patent publication US10017538B2, “Bioactive peptides having insecticide activity” (The United States of America, as represented by the …, priority 2016, dated 2018)
